# From ChEMBL document CHEMBL3046937, “Mass spectral characterization of fatty acid amides from alfalfa trichomes and their deterrence against the potato leafhopper” (Phytochemistry, 2005)
# Active and inactive are the calls of the source. The rule behind the calls is not given here.
# What was measured:
# Type in all cases: functional, organism-based
# Empoasca fabae [1] = assay: Food deterrence activity against Empoasca fabae (potato leafhopper) assessed as deterring insect settling at 12.5 to 100 ug/cm2 through compound application to surface of sachet containing artificial diet measured at 15 min interval over next 350 min by two-choice bioassay
# Empoasca fabae [2] = assay: Food deterrence activity against Empoasca fabae (potato leafhopper) assessed as deterring insect settling at 12.5 ug/cm2 through compound application to surface of sachet containing artificial diet measured at 15 min interval over next 350 min by two-choice bioassay
# Empoasca fabae [3] = assay: Food deterrence activity against Empoasca fabae (potato leafhopper) assessed as deterring insect settling at 50 ug/cm2 through compound application to surface of sachet containing artificial diet measured at 15 min interval over next 350 min by two-choice bioassay
# Empoasca fabae [4] = assay: Food deterrence activity against Empoasca fabae (potato leafhopper) assessed as deterring insect settling at 25 ug/cm2 through compound application to surface of sachet containing artificial diet measured at 15 min interval over next 350 min by two-choice bioassay
# Empoasca fabae [5] = assay: Food deterrence activity against Empoasca fabae (potato leafhopper) assessed as deterring insect settling at 100 ug/cm2 through compound application to surface of sachet containing artificial diet measured at 15 min interval over next 350 min by two-choice bioassay
smiles,measurement,setting,value
CCCCC/C=C\C/C=C\CCCCCCCC(=O)NCCC(C)C,Activity,Empoasca fabae [1],Dose-dependent effect
same,Activity,Empoasca fabae [2],inactive
same,Activity,Empoasca fabae [3],Active
same,Activity,Empoasca fabae [4],Active
same,Activity,Empoasca fabae [5],Active
